The values that follow come from US20140107116A1, “BENZOTHIAZOLE DERIVATIVES FOR THE TREATMENT OF DIABETES” (MERCK SERONO SA, priority 2003, published 2014).

The test system of this test is db/db mice. In words: Oral postprandial glycemia in db/db mice (experimental model of type II diabetes). It is filed as in vivo. The note with it: 100 mg/kg p.o., db/db mice fasted 20 h then fed, compared to vehicle group; for decrease in blood glucose level: 4 hrs after administration; for decrease in insulin level: serum insulin (ELISA) 4 hrs after administration. The procedure:
In Vivo Assay: Experimental Model of Type II Diabetes (Oral Postprandial Glycemia in db/db Mice)
The following assay aims at determining the anti-diabetic effect of the test compounds of formula (I) in a model of postprandial glycemia in db/db mice, in vivo.
The assay was performed as follows:
A total of 18 db/db mice (about 8-9 weeks; obtained from IFFACREDO, l'Arbreste, France) were fasted during 20 hours.
3 groups, each consisting of 6 animals were formed: • Group 1: The animals were administered (per os) a dose of […] of vehicle. • Group 2: The animals were administered (per os) a dose of 50 mg/kg of the test compound according to formula (I). • Group 3: The animals were administered (per os) a dose of 100 mg/kg of the test compound according to formula (I).
After oral administration of the compounds of formula (I) solubilized or suspended in CarboxyMethylCellulose (0.5%), Tween 20 (0.25%) and water as vehicle, the animals had access to commercial food (D04, UAR, Villemoisson/Orge, France) ad libitum. The diabetic state of the mice was verified by determining the blood glucose level before drug administration. Blood glucose and serum insulin levels were then determined 4 hrs after drug administration.
The determination of the blood glucose level was performed using a glucometer (Precision Q.I.D., Medisense, Abbot, ref. 212.62.31).
The determination of the Insulin level was performed using an ELISA kit (Crystal CHEM, Ref. INSK R020).
Changes in blood glucose and serum insulin of drug treated mice were expressed as a percentage of control (group 1: vehicle treated mice).
For orientation: An ELISA detects its analyte on a solid surface through an enzyme-linked reagent.

For `N#CC(c1ccnc(OCc2ccc(CN3CCOCC3)cc2)n1)c1nc2ccccc2s1` (stereo not shown) [1,3-benzothiazol-2-yl(2-{[4-(morpholin-4-ylmethyl)benzyl]oxy}-pyrimidin-4-yl)acetonitrile], the “decrease in blood glucose level” value was determined as 22% and the “decrease in insulin level” value worked out at 36%.
For `N#CC(c1ccnc(NCCc2cccnc2)n1)c1nc2ccccc2s1` (stereo not shown) [1,3-benzothiazol-2-yl(2-{[2-(3-pyridinyl)ethyl]amino}-4-pyrimidinyl)acetonitrile], the “decrease in blood glucose level” value is reported as 38% and the “decrease in insulin level” value is given as 64%.
